One data set relates to HT-29 cells. The data set can be described thus: MTT viability assay. The note with it: Homo sapiens, dilution series. It counts as cell-based. The method, then: (§1) The human pancreatic cancer cell lines Colo357 [61], Panc-1 [62], and MiaPaCa-2 [63] were grown in Dulbecco’s modified Eagle’s medium (DMEM). Panc89 [64] was grown in DMEM:RPMI-1640 medium in ratio 1:1. The human colon adenocarcinoma cell line HT-29 [65] was grown in McCoy’s 5A medium. All media were supplemented with 10% fetal calf serum (FCS), 100 units·mL^−1 penicillin, 100 µg∙mL^−1 streptomycin and 2 mM glutamine. All cells were grown at 37 °C in a humidified 5% carbon dioxide atmosphere.
In order to determine the cytotoxic effects of investigated inhibitors conventional MTT assay were used. 1 × 10^4 cells∙well^−1 were seeded in 96-well cell culture plates and cultivated for 24 h. Cell lines were exposed to increasing concentrations of the indicated inhibitor compounds, with untreated and DMSO-treated cells serving as control. After an incubation period of 48 h 10 µL of MTT solution (5 mg∙mL^−1 in PBS) were added and cells were incubated for 4 h. […] Finally, dissolved crystals were measured spectrophotometrically at 570 nM. […]
Figure S1. (A) HT-29 cells were treated with compounds of series 1 at 20 µM concentration and cell viability was measured by MTT viability assay. […]
screening at 20 µM concentration. Cell viability was determined by MTT assay and the EC50 value was calculated using GraphPad Prism 6. […]
Background: Tetrazolium dyes change colour on reduction, which living cells bring about.

The subject of a further data set is Panc89 cells. Description: MTT viability assay. Format: cell-based, human. The note with it: 48 h incubation, mean ± SD, n = 3. The method, then:
as §1
(§2) In order to determine the cytotoxic effects of investigated inhibitors conventional MTT assay were used. 1 × 10^4 cells∙well^−1 were seeded in 96-well cell culture plates and cultivated for 24 h. Cell lines were exposed to increasing concentrations of the indicated inhibitor compounds, with untreated and DMSO-treated cells serving as control. After an incubation period of 48 h 10 µL of MTT solution (5 mg∙mL^−1 in PBS) were added and cells were incubated for 4 h. MTT-containing medium was carefully removed and 100 µL acidic isopropanol (0.04 N HCl in isopropanol) per well were added. For dissolution of formazan crystals plates were shaken for 30 min on an orbital shaker in the dark. Finally, dissolved crystals were measured spectrophotometrically at […]. All experiments were performed in triplicate with four technical replicates per assay. Results were normalized considering the mean optical density value of control wells as 100%. GraphPad Prism 6 (La Jolla, CA, USA) software was used to calculate EC50 values.

For the next data set, the system named is Panc-1 cells. The data set can be described thus: MTT viability assay. It counts as cell-based, human. To be noted: mean ± SD, n = 3. The method, then:
as §1, §2

For a further data set, the system named is Colo357 cells. The data set can be described thus: MTT viability assay. It counts as cell-based, human. The note with it: mean ± SD, n = 3. The method, then:
as §1, §2

The test system of the next data set is MiaPaCa-2 cells. Description: MTT viability assay. Format: cell-based, human. To be noted: mean ± SD, n = 3. The method, then:
as §1, §2

In the next data set the test system is CK1α. The note with it: read-out: IC50 CK1α; cited from earlier work.
Another data set relates to CK1δ/ε. The note with it: read-out: IC50 CK1δ/ε; cited from earlier work.
For another data set, the system named is CK1ε. The arrangement: method as in PMID 19591487. The note with it: cited from earlier work.
A short description of data set [1]: Chemical stability in DMSO solution by HPLC analysis. It counts as physicochemical. The note with it: within a short period of time after preparing a solution in DMSO. An excerpt: The binding modes described above are based on (E)-configured cinnamic moieties of 1 and 2, respectively. […] Accordingly, computational analysis assume these (Z)-stereoisomers to be less bioactive. Furthermore, the acrylamide Michael acceptor moiety of the cinnamic acid side chain was considered responsible for the observed chemical instability of 1 and 2 in solution. […] Consequently, our primary goal towards an optimized inhibitor was to gain chemical stability. Thus, having identified the cinnamic side chain to be responsible for the chemical instability issue we aimed towards stable side chains attached at the validated 2-aminopyridine core moiety. By these modifications we set out to explore the respective hydrophobic region II formerly occupied by the cinnamic acid moiety. At the same time, both potency and selectivity for CK1δ were taken into account. Therefore, in our systematic approach four structurally divergent series of inhibitors with variable side chains (Scheme 1) have been designed based on the following considerations.
They were stable in DMSO solution at room temperature without detectable degradation over a period of 72 h by HPLC analysis.

The target in another data set is CK1δ (Homo sapiens, UniProt P48730). The arrangement: method as in PMID 19591487. The note with it: CK1δ versus CK1ε; cited from earlier work.
[2] abbreviates: Homo sapiens, PANC-1, 48 h incubation.
[3] abbreviates: Homo sapiens, COLO357, 48 h incubation.
Where [4] appears, read: Homo sapiens, MIA PaCa-2, 48 h incubation.

The values below come from publication PMC6154583, “Optimized 4,5-Diarylimidazoles as Potent/Selective Inhibitors of Protein Kinase CK1δ and Their Structural Relation to p38α MAPK” (Molecules : A Journal of Synthetic Chemistry and Natural …, 2017).

Sequence of CK1δ (P48730 whole entry): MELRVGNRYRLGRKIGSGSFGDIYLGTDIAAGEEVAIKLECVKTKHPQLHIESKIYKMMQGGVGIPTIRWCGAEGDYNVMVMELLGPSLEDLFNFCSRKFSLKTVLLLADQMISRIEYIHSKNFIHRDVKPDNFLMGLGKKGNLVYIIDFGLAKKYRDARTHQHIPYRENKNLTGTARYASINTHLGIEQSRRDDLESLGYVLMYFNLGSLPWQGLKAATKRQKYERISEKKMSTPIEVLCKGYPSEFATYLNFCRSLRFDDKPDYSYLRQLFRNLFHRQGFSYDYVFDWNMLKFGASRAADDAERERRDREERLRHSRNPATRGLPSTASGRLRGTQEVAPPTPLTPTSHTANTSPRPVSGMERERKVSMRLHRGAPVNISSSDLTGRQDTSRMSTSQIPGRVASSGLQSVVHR

For orientation: EC50 means the midpoint of the concentration-response curve. High values mean weaker potency, low ones greater potency. As for `CSc1nc(-c2ccnc(NCCc3c[nH]c4ccccc34)c2)c(-c2ccc(F)cc2)[nH]1` [10e, N-(2-(1H-Indol-3-yl)-ethyl)-4-(5-(4-fluorophenyl)-2-(methylthio)-1H-imidazol-4-yl)-pyridin-2-amine], in the data set on HT-29 cells, a half-maximal response (EC50) required 9.3 µM.

Turning to `COc1ccc(CCC(=O)Nc2cc(-c3nc(SC)[nH]c3-c3ccc(F)cc3)ccn2)c(OC)c1` [11a, 3-(2,4-Dimethoxyphenyl)-N-(4-(5-(4-fluorophenyl)-2-(methylthio)-1H-imidazol-4-yl)-pyridin-2-yl)propanamide], the half-maximal effective concentration (EC50) in the data set on Panc89 cells (Homo sapiens) was 2.5 ± 1 µM; in the data set with Panc-1 cells (setting [2]) it was 7 ± 0.7 µM; in the data set on Colo357 cells (setting [3]) it was 4.1 ± 1.7 µM; with MiaPaCa-2 cells (setting [4]) it was 4.9 ± 0.8 µM.

For `COc1cccc(CCC(=O)Nc2cc(-c3nc(SC)[nH]c3-c3ccc(F)cc3)ccn2)c1OC` [11c, 3-(2,3-Dimethoxyphenyl)-N-(4-(5-(4-fluorophenyl)-2-(methylthio)-1H-imidazol-4-yl)-pyridin-2-yl)-propanamide], the values for the EC50 with Panc89 cells (Homo sapiens) and in the data set with Colo357 cells (setting [3]) were 6.1 ± 3 µM and 1.9 ± 0.6 µM, respectively.

Consider `COc1ccc(CCC(=O)Nc2cc(-c3nc(SC)[nH]c3-c3ccc(F)cc3)ccn2)cc1OC` [11d, 3-(3,4-Dimethoxyphenyl)-N-(4-(5-(4-fluorophenyl)-2-(methylthio)-1H-imidazol-4-yl)-pyridin-2-yl)-propanamide], for which the EC50 with Panc89 cells (Homo sapiens) turned out to be 7.8 ± 0.4 µM; in the data set on Colo357 cells (setting [3]) it was 5.9 ± 2.4 µM.

In the case of `COc1cc(CCC(=O)Nc2cc(-c3nc(SC)[nH]c3-c3ccc(F)cc3)ccn2)cc(OC)c1OC` [11e, 3-(3,4,5-Trimethoxyphenyl)-N-(4-(5-(4-fluorophenyl)-2-(methylthio)-1H-imidazol-4-yl)-pyridin-2-yl)-propanamide], the figures for the EC50 with Panc89 cells (Homo sapiens) and in the data set with Colo357 cells (setting [3]) were 8.3 ± 2.2 µM and 4.5 ± 1.3 µM, respectively.

Take `COc1ccc(NC(=O)Nc2cc(-c3nc(SC)[nH]c3-c3ccc(F)cc3)ccn2)c(OC)c1` [12a, 1-(2,4-Dimethoxyphenyl)-3-(4-(5-(4-fluorophenyl)-2-(methylthio)-1H-imidazol-4-yl)-pyridin-2-yl)carbamide]: the EC50 was 19.6 ± 3.8 µM in the data set on Panc89 cells (Homo sapiens), 16.1 ± 5.6 µM with Panc-1 cells (setting [2]), 17.4 ± 0.04 µM in the data set with Colo357 cells (setting [3]) and 15.22 ± 0.04 µM in the data set with MiaPaCa-2 cells (setting [4]).

As for `COc1ccc(OC)c(NC(=O)Nc2cc(-c3nc(SC)[nH]c3-c3ccc(F)cc3)ccn2)c1` [12b, 1-(2,5-Dimethoxyphenyl)-3-(4-(5-(4-fluorophenyl)-2-(methylthio)-1H-imidazol-4-yl)-pyridin-2-yl)carbamide], the concentration giving a half-maximal response (EC50) in the data set with Panc-1 cells (48 h incubation) was 15.2 ± 2.6 µM; in the data set with Colo357 cells (48 h incubation), 15.5 ± 1.6 µM; in the data set on MiaPaCa-2 cells (48 h incubation) it was 11.6 ± 1.1 µM.

Take `CSc1nc(-c2ccnc(NC(=O)Nc3ccc(C)c(Cl)c3)c2)c(-c2ccc(F)cc2)[nH]1` [12e, 1-(3-Chloro-4-methylphenyl)-3-(4-(5-(4-fluorophenyl)-2-(methylthio)-1H-imidazol-4-yl)-pyridin-2-yl)-carbamide]: the EC50 amounted to 7.5 ± 3 µM in the data set with Panc89 cells and 14.9 ± 2.6 µM with Colo357 cells (48 h incubation).

Regarding `COc1ccc(-c2cc(C(=O)Nc3cc(-c4nc(SC)[nH]c4-c4ccc(F)cc4)ccn3)n(C)c2)c(OC)c1` [16a, 4-(2,4-Dimethoxyphenyl)-N-(4-(5-(4-fluorphenyl)-2-(methylthio)-1H-imidazol-4-yl)-pyridin-2-yl)-1-methyl-1H-pyrrole-2-carboxamide], the EC50 in the data set on Panc-1 cells (setting [2]) stood at 5.1 ± 1.6 µM; in the data set on MiaPaCa-2 cells (setting [4]) it was 2.4 ± 0.7 µM.

In the case of `COc1ccc(OC)c(-c2cc(C(=O)Nc3cc(-c4nc(SC)[nH]c4-c4ccc(F)cc4)ccn3)n(C)c2)c1` [16b, 4-(2,5-Dimethoxyphenyl)-N-(4-(5-(4-fluorphenyl)-2-(methylthio)-1H-imidazol-4-yl)-pyridin-2-yl)-1-methyl-1H-pyrrole-2-carboxamide], the EC50 was 7.3 ± 1.9 µM with Panc89 cells, 5.4 ± 1.5 µM in the data set with Panc-1 cells (48 h incubation), 5.7 ± 2.2 µM with Colo357 cells (48 h incubation) and 2.3 ± 0.2 µM with MiaPaCa-2 cells (48 h incubation).

On to `COc1ccc(-c2cc(C(=O)Nc3cc(-c4nc([S+](C)[O-])[nH]c4-c4ccc(F)cc4)ccn3)n(C)c2)c(OC)c1` (stereo not drawn) [16c, 4-(2,4-Dimethoxyphenyl)-N-(4-(5-(4-fluorophenyl)-2-(methylsulfinyl)-1H-imidazol-4-yl)-pyridin-2-yl)-1-methyl-1H-pyrrol-2-carboxamide], for which the values for the EC50 in the data set with Panc-1 cells (setting [2]), in the data set with Colo357 cells (setting [3]) and in the data set on MiaPaCa-2 cells (setting [4]) were 10.2 ± 3.2 µM, 16.7 ± 5.6 µM and 7.7 ± 2.5 µM, respectively.

On to `COc1cc(OC)c(C=C2C(O)=Nc3ccccc32)c(OC)c1` [IC261], for which the results for the IC50 in the data set with CK1α and in the data set on CK1δ/ε were 10 µM and 1 µM, respectively.

Turning to `COc1ccc(/C=C/C(=O)Nc2cc(-c3nc(SC)[nH]c3-c3ccc(F)cc3)ccn2)c(OC)c1` [compound 1], the IC50 with CK1ε was 0.073 µM. Besides, the “chemical stability in DMSO solution (HPLC analysis)” value in data set [1] is “increasing number of not identifiable degradation products”.

For `COc1ccc(C=CC(=O)Nc2cc(-c3nc([S+](C)[O-])[nH]c3-c3ccc(F)cc3)ccn2)c(OC)c1` (stereo not drawn) [compound 2], the “discrimination of isoforms δ and ε” value on CK1δ was “at least 40 fold”. Besides, the IC50 with CK1ε was 0.447 µM. Further, the “chemical stability in DMSO solution (HPLC analysis)” value in data set [1] was “increasing number of not identifiable degradation products”.
